Consider one compound from patent publication US20250313593A1, “DIPEPTIDE DERIVATIVE COMPOSITION, PREPARATION METHOD THEREFOR, AND USE THEREOF” (BEIJING CONTINENT PHARMACEUTICALS CO., LTD, priority 2022, published 2025).

Data set [1] can be described thus: Screening injection solvents for F573 (solvent effects, dissolution behavior). The data set is classed as physicochemical. The conditions noted are these: 2 ml:30 mg F573. The source says:
1.1 for the Purpose of Preparing F573 Injection, Screening Injection Solvents

A short description of data set [2]: Stability of F573 solution before and after high-temperature sterilization. The data set is classed as physicochemical. As to conditions: for Content / Related substances: propylene glycol/water (80%/20%), pH 4.0-5.0. On the procedure: 1.2 Investigation of Stability of F573 Injection
F573 was dissolved in the solution of propylene glycol/water (80%/20%; pH was adjusted to 4.0-5.0), and the resulting mixture was sterilized at a high temperature of 120° C. for 15 min and then examined (the results are shown in Table A-2 below).

The subject of another data set is liver failure. As to conditions: background; CN201110025509.8 and CN201110025516.8; cited from earlier work.
The next data set has as its system cells. The conditions noted are these: background; cited from earlier work.
Setting [3] is: After sterilization at 120° C. for 15 min.
The mark [4] stands for this setting: after the high-temperature sterilization.

Entries after “also recorded” stand apart in the source; their conditions may differ.

On to `CC(C)[C@H](NC(=O)OCc1ccccc1)C(=O)NC(CC(=O)O)C(=O)CF` (stereo partly drawn) [F573, 3-(2-benzyloxycarbonylamino-3-methyl-butanamido)-5-fluoro-4-oxo-pentanoic acid], for which the Dissolution behavior entry in data set [1] (Ethanol/water (10%/90%)) is given as “Turbid”; in data set [1] (Oil for injection, Vegetable oil) it was “Turbid”; in data set [1] (Propylene glycol/water (50%/50%)) it was “Turbid”; in data set [1] (Propylene glycol/water (80%/20%), adjusting pH to 4.0-5.0) it was “completely dissolved; also recorded: Clarified”; in data set [1] (Water for injection, adjusting pH to 2.0-2.5) it was “Turbid”; in data set [1] (Water for injection, adjusting pH to 4.0-5.0), “Turbid”. Besides, the results for the Content in data set [2] (setting [3]) and in data set [2] (Before sterilization) were 8.82 mg/mL and 16.08 mg/mL, respectively. Moreover, the Related substances in data set [2] (setting [3]) stood at 47.22%; in data set [2] (Before sterilization), 1.80%. The “Increase in the related substances” value in data set [2] (setting [4]) is on record as “about 50%”. Moreover, the “Reduction in the F573 content” value in data set [2] (setting [4]) was “about 50%”. The “Stability in aqueous solution” value in data set [2] (aqueous solution, moist heat sterilization) is recorded as “poor stability”. Besides, the “Efficacy on liver failure” value in the data set on liver failure was “remarkable efficacy on liver failure”. The Toxicity on cells result in the data set with cells is “no significant toxicity on cells”.
